Common to all, as to type: cell-based, human
One experiment relates to HTT mRNA. Nature of the experiment: RT-qPCR splicing assay, HTT mRNA canonical (CJ) and alternative (AJ) junction. The following applies: Homo sapiens; for AC50: HTT alternative junction mRNA, read-out: HTT AJ (increase in AJ mRNA, AC50). Summed up:
(§1)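 Junction-specific RT-qPCR read-out: CJ and AJ isoform levels, housekeeper-normalized (GAPDH/GUSB/PPIA), ΔΔCt vs DMSO, converted to RQ then % response. Cells: A673 (DMEM/10% FBS, adhered 24 h) or K562 (IMDM/10% FBS). Compound 11-pt 3-fold, top 10 uM, 24 h, 37 °C.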
Background: Real-time PCR tracks product formation cycle by cycle.

For a further experiment, the system named is MYB mRNA. In words: RT-qPCR splicing assay, MYB mRNA canonical (CJ) and alternative (AJ) junction. The settings on record: Homo sapiens; for AC50: MYB alternative junction mRNA, read-out: MYB AJ (increase in AJ mRNA, AC50). In a few lines:
as §1

The next experiment relates to SMN2 mRNA. Nature of the experiment: RT-qPCR splicing assay, SMN2 mRNA. The following applies: Homo sapiens, canonical junction qPCR panel, Table 4; read-out: SMN2 IC50 (decrease in CJ mRNA levels). Summed up:
as §1

The subject of the next experiment is MYB. Nature of the experiment: HiBiT protein abundance assay, MYB (K562 HiBiT knock-in). The settings on record: HiBiT knock-in K562 cells, 24 hours, top dose 10 μM. Summed up:
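Tagged-protein levels were measured as HiBiT/LgBiT luminescence in lysed K562 knock-in cells exposed to serially diluted compound (up to 10 μM final) for 24 hours. A four-parameter logistic regression of control-normalized signal yielded the IC50.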
On the technique in general: HiBiT is a short tag that completes a luciferase, so light tracks the accessible tagged protein.

Setting [1] is: HTT canonical junction mRNA, RT-qPCR, read-out: HTT CJ (decrease in CJ mRNA levels, IC50).
Where [2] appears, read: canonical junction qPCR panel, Table 4, read-out: HTT IC50 (decrease in CJ mRNA levels).
The mark [3] stands for this setting: MYB canonical junction mRNA, RT-qPCR, read-out: MYB CJ (decrease in CJ mRNA levels, IC50).
[4] abbreviates: canonical junction qPCR panel, Table 4, read-out: MYB IC50 (decrease in CJ mRNA levels).

Where two headings read alike, the source gives them in different places.

The values below come from patent US20250092065A1, “2-(INDAZOL-5-YL)-6-(PIPERIDIN-4-YL)-1,7-NAPHTHYRIDINE DERIVATIVES AND RELATED COMPOUNDS AS MODULATORS FOR SPLICING NUCLEIC ACIDS AND FOR THE TREATMENT OF PROLIFERATIVE DISEASES” (REMIX THERAPEUTICS INC., priority 2022, published 2025).

What is called AC50 is the concentration giving half of the maximal activity seen. For orientation: IC50 means the concentration that gives 50% inhibition.

For the compound `C[C@H]1CN(c2ccc3nc(-c4cc5cn(C)nc5cc4O)ncc3c2)C[C@H](C)N1` [Compound 752, 5-{6-[(3S,5S)-3,5-dimethylpiperazin-1-yl]quinazolin-2-yl}-2-methylindazol-6-ol], the AC50 in the experiment with HTT mRNA (RT-qPCR) is 1 to 10 µM; in the experiment with MYB mRNA (RT-qPCR), < 0.1 µM. For the same compound, the IC50 was 1 to 10 µM in the experiment on HTT mRNA (setting [1]); 1 to 10 µM in the experiment with HTT mRNA (setting [2]); < 0.1 µM with MYB mRNA (setting [3]); < 0.1 µM in the experiment with MYB mRNA (setting [4]); < 0.1 µM in the experiment on SMN2 mRNA; < 0.1 µM with MYB.

As for `C[C@@H]1CN(c2ccc3nc(-c4cc5cn(C)nc5cc4O)ncc3c2)C[C@@H](C)N1` [Compound 753, 5-{6-[(3R,5R)-3,5-dimethylpiperazin-1-yl]quinazolin-2-yl}-2-methylindazol-6-ol], the results for the AC50 with HTT mRNA (RT-qPCR) and in the experiment on MYB mRNA (RT-qPCR) were 1 to 10 µM and 0.1 to 1 µM, respectively. In addition, the 50% inhibitory concentration (IC50) was 1 to 10 µM in the experiment with HTT mRNA (setting [1]); 1 to 10 µM in the experiment on HTT mRNA (setting [2]); 0.1 to 1 µM with MYB mRNA (setting [3]); 0.1 to 1 µM in the experiment on MYB mRNA (setting [4]); < 0.1 µM in the experiment on SMN2 mRNA; 0.1 to 1 µM in the experiment with MYB.

Regarding `CCN(CC)C1CCN(c2ccc3nc(-c4cc5cn(C)nc5c(F)c4O)ncc3c2)CC1` [Compound 756, 5-{6-[4-(diethylamino)piperidin-1-yl]quinazolin-2-yl}-7-fluoro-2-methylindazol-6-ol], the AC50 with HTT mRNA (RT-qPCR) and in the experiment with MYB mRNA (RT-qPCR) was 0.1 to 1 µM throughout. Also, the IC50 is 0.1 to 1 µM in the experiment on HTT mRNA (setting [1]); 0.1 to 1 µM with HTT mRNA (setting [2]); 0.1 to 1 µM in the experiment on MYB mRNA (setting [3]); 0.1 to 1 µM in the experiment on MYB mRNA (setting [4]); < 0.1 µM in the experiment with SMN2 mRNA; 0.1 to 1 µM with MYB.
